Measured values: ChEMBL document CHEMBL1201862, “PubChem BioAssay data set” (2004)
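Growth conditions: 96-well plates. Treatment: test compound, 48 hours, 5 concentrations. Analysis: linear interpolation between bracketing concentrations; unreached endpoints set to highest concentration. Here, GI50 denotes the concentration required for 50% inhibition of growth.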 Activity calls are given as the source filed them. Cut-off read from the data, not from the text of the source: active = GI50 up to about 1.1 µM and inactive = higher.

Legend:
Experiment in all cases: NCI-60 cell line screen, 48 h
[1] = system: CAKI-1
[2] = system: EKVX
[3] = system: HCT-116
[4] = system: HL-60
[5] = system: HOP-62
[6] = system: IGROV-1
[7] = system: M14
[8] = system: RXF 393
[9] = system: SK-MEL-28
[10] = system: SK-MEL-5
[11] = system: SNB-19
[12] = system: SNB-75
[13] = system: U-251
[14] = system: HCT-15
[15] = system: NCI-H460

Row | SMILES | GI50 [1] | GI50 [2] | GI50 [3] | GI50 [4] | GI50 [5] | GI50 [6] | GI50 [7] | GI50 [8] | GI50 [9] | GI50 [10] | GI50 [11] | GI50 [12] | GI50 [13] | GI50 [14] | GI50 [15]
1 | CCOC(=N)CC(=O)c1ccccc1 | > 100 µM (inactive) | > 100 µM (inactive) | > 100 µM (inactive) | > 100 µM (inactive) | > 100 µM (inactive) | > 100 µM (inactive) | > 100 µM (inactive) | > 100 µM (inactive) | > 100 µM (inactive) | > 100 µM (inactive) | > 100 µM (inactive) | > 100 µM (inactive) | > 100 µM (inactive) | – | –
2 | COC(=O)C(=O)OC1(C(C)=O)CC2(c3ccccc3)OC1(c1ccccc1)c1ccccc12 (stereo not given) | 17.9 µM (inactive) | 20.7 µM (inactive) | 16.2 µM (inactive) | 33.5 µM (inactive) | 18.4 µM (inactive) | 16.3 µM (inactive) | 17.9 µM (inactive) | 15.4 µM (inactive) | – | 15 µM (inactive) | 19.9 µM (inactive) | 32.7 µM (inactive) | 16.4 µM (inactive) | 16.9 µM | 18.4 µM (inactive)
3 | C=C(COC(C)=O)CC(/C=C(\C)CCC=C(C)C)OC(C)=O (stereo not given) | – | > 100 µM (inactive) | > 100 µM (inactive) | 74.5 µM (inactive) | > 100 µM (inactive) | > 100 µM (inactive) | > 100 µM (inactive) | > 100 µM (inactive) | > 100 µM (inactive) | > 100 µM (inactive) | > 100 µM (inactive) | 50.6 µM (inactive) | > 100 µM (inactive) | > 100 µM | > 100 µM (inactive)
4 | C=C(CS(=O)(=O)c1ccccc1)[P+](c1ccccc1)(c1ccccc1)c1ccccc1 | 23.4 µM (inactive) | 30.4 µM (inactive) | 12.7 µM (inactive) | 9.16 µM (inactive) | 28.1 µM (inactive) | 25.7 µM (inactive) | 17.4 µM (inactive) | 19.2 µM (inactive) | 11.1 µM (inactive) | 13.6 µM (inactive) | 28.4 µM (inactive) | 12.6 µM (inactive) | > 10 µM (inactive) | 23.6 µM | 22.1 µM (inactive)
5 | CCCCCCCCCCCCC(Br)C(=O)NCC(N)=O (stereo not given) | – | 20.6 µM (inactive) | 1.83 µM (inactive) | 4.57 µM (inactive) | 15 µM (inactive) | 9.66 µM (inactive) | 11.1 µM (inactive) | 3.6 µM (inactive) | 15.2 µM (inactive) | 4.57 µM (inactive) | 11.2 µM (inactive) | 0.118 µM (active) | 11.6 µM (inactive) | 8.87 µM | 16 µM (inactive)
6 | COc1ccc(/N=N/c2c(-c3ccccc3)nn(C(=O)CC(=O)Nc3ccccc3Cl)c2-c2ccccc2)cc1 | > 100 µM (inactive) | > 100 µM (inactive) | > 100 µM (inactive) | 22.6 µM (inactive) | > 100 µM (inactive) | > 100 µM (inactive) | > 100 µM (inactive) | > 100 µM (inactive) | > 100 µM (inactive) | > 100 µM (inactive) | > 100 µM (inactive) | 6.12 µM (inactive) | > 100 µM (inactive) | 58.9 µM | > 100 µM (inactive)
7 | COc1cc([C@@H]2c3cc4c(cc3[C@@H](NC(=O)c3ccc(N)cc3)C3COC(=O)[C@@H]32)OCO4)cc(OC)c1O (stereo not given in full) | 5.4 µM (inactive) | 3.62 µM (inactive) | 2.47 µM (inactive) | 0.207 µM (active) | 0.535 µM (active) | 1.42 µM (inactive) | 2.72 µM (inactive) | 15.7 µM (inactive) | 5.15 µM (inactive) | 2.81 µM (inactive) | 1.34 µM (inactive) | 1.29 µM (inactive) | 0.362 µM (active) | 12.6 µM | < 0.01 µM (active)
8 | COc1ccc(NC(=O)c2cc(OC)cc(OC)c2)cc1 | 21.9 µM (inactive) | 24.2 µM (inactive) | 8.41 µM (inactive) | 6.98 µM (inactive) | > 36.5 µM (inactive) | 28 µM (inactive) | 47.3 µM (inactive) | 17.8 µM (inactive) | 45.7 µM (inactive) | 9.38 µM (inactive) | > 60.8 µM (inactive) | 27.9 µM (inactive) | 17.5 µM (inactive) | 6.93 µM | 9.89 µM (inactive)
9 | Clc1ccccc1C1SCc2nc3ccccc3n21 (stereo not given) | 25.4 µM (inactive) | 22.6 µM (inactive) | 18.7 µM (inactive) | 13 µM (inactive) | 19.3 µM (inactive) | 33.6 µM (inactive) | 19.1 µM (inactive) | 24.5 µM (inactive) | 28.5 µM (inactive) | 17.9 µM (inactive) | 12.4 µM (inactive) | 3.97 µM (inactive) | 22.8 µM (inactive) | 22.6 µM | 30.1 µM (inactive)
10 | COc1ccc2nc(NC(=O)C(=O)CC(=O)c3ccc(Cl)cc3)sc2c1 | 58.5 µM (inactive) | 48.1 µM (inactive) | > 100 µM (inactive) | > 100 µM (inactive) | > 100 µM (inactive) | 73.1 µM (inactive) | > 100 µM (inactive) | 31.3 µM (inactive) | > 100 µM (inactive) | > 100 µM (inactive) | 95.5 µM (inactive) | 29.4 µM (inactive) | 48.4 µM (inactive) | > 100 µM | > 100 µM (inactive)
